{"source": "patent US12173135B2", "about": "“Plasticizer and plastic product” (LARGAN MEDICAL CO., LTD., priority 2019, dated 2024)", "test": "biodegradation tests (ASTM 5338) of the plasticizers", "procedure": "The biodegradation tests (ASTM 5338) of the plasticizers with different molecular structures are performed below. The comparison, the 29th Example and the 30th Example are tested, and the degrees of degradation under different days are listed in the following table."}
{"smiles": "O=C(OCCOC(=O)c1ccccc1O)c1ccccc1O", "note": "[30th Example]", "values": [{"measurement": "Degree of Degradation (%)", "setting": "day 0", "value": 0, "unit": "%"}, {"measurement": "Degree of Degradation (%)", "setting": "day 3", "value": 3.21, "unit": "%"}, {"measurement": "Degree of Degradation (%)", "setting": "day 7", "value": 1.97, "unit": "%"}, {"measurement": "Degree of Degradation (%)", "setting": "day 12", "value": 1.09, "unit": "%"}, {"measurement": "Degree of Degradation (%)", "setting": "day 15", "value": 1.87, "unit": "%"}, {"measurement": "Degree of Degradation (%)", "setting": "day 19", "value": 4.13, "unit": "%"}, {"measurement": "Degree of Degradation (%)", "setting": "day 24", "value": 6.63, "unit": "%"}, {"measurement": "Degree of Degradation (%)", "setting": "day 28", "value": 13.13, "unit": "%"}, {"measurement": "Degree of Degradation (%)", "setting": "day 33", "value": 17.63, "unit": "%"}, {"measurement": "Degree of Degradation (%)", "setting": "day 36", "value": 26.70, "unit": "%"}, {"measurement": "Degree of Degradation (%)", "setting": "day 40", "value": 33.47, "unit": "%"}, {"measurement": "Degree of Degradation (%)", "setting": "day 45", "value": 38.10, "unit": "%"}, {"measurement": "Degree of Degradation (%)", "setting": "day 49", "value": 43.93, "unit": "%"}, {"measurement": "Degree of Degradation (%)", "setting": "day 54", "value": 47.28, "unit": "%"}, {"measurement": "Degree of Degradation (%)", "setting": "day 58", "value": 60.14, "unit": "%"}, {"measurement": "Degree of Degradation (%)", "setting": "day 63", "value": 67.90, "unit": "%"}, {"measurement": "Degree of Degradation (%)", "setting": "day 67", "value": 69.50, "unit": "%"}, {"measurement": "Degree of Degradation (%)", "setting": "day 71", "value": 71.37, "unit": "%"}, {"measurement": "Degree of Degradation (%)", "setting": "day 75", "value": 72.99, "unit": "%"}, {"measurement": "Degree of Degradation (%)", "setting": "day 81", "value": 73.19, "unit": "%"}, {"measurement": "Degree of Degradation (%)", "setting": "day 85", "value": 73.19, "unit": "%"}, {"measurement": "Degree of Degradation (%)", "setting": "day 89", "value": 73.53, "unit": "%"}, {"measurement": "Degree of Degradation (%)", "setting": "day 93", "value": 78.89, "unit": "%"}, {"measurement": "Degree of Degradation (%)", "setting": "day 98", "value": 78.51, "unit": "%"}, {"measurement": "Degree of Degradation (%)", "setting": "day 102", "value": 78.14, "unit": "%"}, {"measurement": "Degree of Degradation (%)", "setting": "day 105", "value": 78.50, "unit": "%"}, {"measurement": "Degree of Degradation (%)", "setting": "day 109", "value": 81.63, "unit": "%"}, {"measurement": "Degree of Degradation (%)", "setting": "day 114", "value": 81.09, "unit": "%"}, {"measurement": "Degree of Degradation (%)", "setting": "day 118", "value": 84.55, "unit": "%"}, {"measurement": "Degree of Degradation (%)", "setting": "day 124", "value": 84.55, "unit": "%"}, {"measurement": "Degree of Degradation (%)", "setting": "day 128", "value": 86.04, "unit": "%"}, {"measurement": "Degree of Degradation (%)", "setting": "day 132", "value": 86.55, "unit": "%"}, {"measurement": "Degree of Degradation (%)", "setting": "day 137", "value": 86.81, "unit": "%"}, {"measurement": "Degree of Degradation (%)", "setting": "day 140", "value": 86.58, "unit": "%"}, {"measurement": "Degree of Degradation (%)", "setting": "day 144", "value": 86.58, "unit": "%"}, {"measurement": "Degree of Degradation (%)", "setting": "day 147", "value": 87.69, "unit": "%"}, {"measurement": "Degree of Degradation (%)", "setting": "day 151", "value": 88.54, "unit": "%"}, {"measurement": "Degree of Degradation (%)", "setting": "day 155", "value": 88.54, "unit": "%"}, {"measurement": "Degree of Degradation (%)", "setting": "day 158", "value": 87.80, "unit": "%"}, {"measurement": "Degree of Degradation (%)", "setting": "day 161", "value": 87.80, "unit": "%"}, {"measurement": "Degree of Degradation (%)", "setting": "day 165", "value": 87.80, "unit": "%"}, {"measurement": "Degree of Degradation (%)", "setting": "day 168", "value": 88.40, "unit": "%"}, {"measurement": "Degree of Degradation (%)", "setting": "day 172", "value": 89.55, "unit": "%"}, {"measurement": "Degree of Degradation (%)", "setting": "day 175", "value": 89.91, "unit": "%"}, {"measurement": "Degree of Degradation (%)", "setting": "day 179", "value": 91.46, "unit": "%"}]}
{"smiles": "CCCCCCCCOC(=O)CC(N)C(=O)OCCCCCCCC", "note": "(racemic) [29th Example]", "values": [{"measurement": "Degree of Degradation (%)", "setting": "day 0", "value": 0, "unit": "%"}, {"measurement": "Degree of Degradation (%)", "setting": "day 3", "value": 6.70, "unit": "%"}, {"measurement": "Degree of Degradation (%)", "setting": "day 7", "value": 8.53, "unit": "%"}, {"measurement": "Degree of Degradation (%)", "setting": "day 12", "value": 20.53, "unit": "%"}, {"measurement": "Degree of Degradation (%)", "setting": "day 15", "value": 26.53, "unit": "%"}, {"measurement": "Degree of Degradation (%)", "setting": "day 19", "value": 35.22, "unit": "%"}, {"measurement": "Degree of Degradation (%)", "setting": "day 24", "value": 44.08, "unit": "%"}, {"measurement": "Degree of Degradation (%)", "setting": "day 28", "value": 48.75, "unit": "%"}, {"measurement": "Degree of Degradation (%)", "setting": "day 33", "value": 51.62, "unit": "%"}, {"measurement": "Degree of Degradation (%)", "setting": "day 36", "value": 53.72, "unit": "%"}, {"measurement": "Degree of Degradation (%)", "setting": "day 40", "value": 55.78, "unit": "%"}, {"measurement": "Degree of Degradation (%)", "setting": "day 45", "value": 57.19, "unit": "%"}, {"measurement": "Degree of Degradation (%)", "setting": "day 49", "value": 58.41, "unit": "%"}, {"measurement": "Degree of Degradation (%)", "setting": "day 54", "value": 59.35, "unit": "%"}, {"measurement": "Degree of Degradation (%)", "setting": "day 58", "value": 59.61, "unit": "%"}, {"measurement": "Degree of Degradation (%)", "setting": "day 63", "value": 59.85, "unit": "%"}, {"measurement": "Degree of Degradation (%)", "setting": "day 67", "value": 60.34, "unit": "%"}, {"measurement": "Degree of Degradation (%)", "setting": "day 71", "value": 62.58, "unit": "%"}, {"measurement": "Degree of Degradation (%)", "setting": "day 75", "value": 63.96, "unit": "%"}, {"measurement": "Degree of Degradation (%)", "setting": "day 81", "value": 63.75, "unit": "%"}, {"measurement": "Degree of Degradation (%)", "setting": "day 85", "value": 62.72, "unit": "%"}, {"measurement": "Degree of Degradation (%)", "setting": "day 89", "value": 64.14, "unit": "%"}, {"measurement": "Degree of Degradation (%)", "setting": "day 93", "value": 65.04, "unit": "%"}, {"measurement": "Degree of Degradation (%)", "setting": "day 98", "value": 65.04, "unit": "%"}, {"measurement": "Degree of Degradation (%)", "setting": "day 102", "value": 66.44, "unit": "%"}, {"measurement": "Degree of Degradation (%)", "setting": "day 105", "value": 66.44, "unit": "%"}, {"measurement": "Degree of Degradation (%)", "setting": "day 109", "value": 66.25, "unit": "%"}, {"measurement": "Degree of Degradation (%)", "setting": "day 114", "value": 66.04, "unit": "%"}, {"measurement": "Degree of Degradation (%)", "setting": "day 118", "value": 66.80, "unit": "%"}, {"measurement": "Degree of Degradation (%)", "setting": "day 124", "value": 66.80, "unit": "%"}, {"measurement": "Degree of Degradation (%)", "setting": "day 128", "value": 67.01, "unit": "%"}, {"measurement": "Degree of Degradation (%)", "setting": "day 132", "value": 66.81, "unit": "%"}, {"measurement": "Degree of Degradation (%)", "setting": "day 137", "value": 66.81, "unit": "%"}, {"measurement": "Degree of Degradation (%)", "setting": "day 140", "value": 66.81, "unit": "%"}, {"measurement": "Degree of Degradation (%)", "setting": "day 144", "value": 66.01, "unit": "%"}, {"measurement": "Degree of Degradation (%)", "setting": "day 147", "value": 64.81, "unit": "%"}, {"measurement": "Degree of Degradation (%)", "setting": "day 151", "value": 64.62, "unit": "%"}, {"measurement": "Degree of Degradation (%)", "setting": "day 155", "value": 64.23, "unit": "%"}, {"measurement": "Degree of Degradation (%)", "setting": "day 158", "value": 65.50, "unit": "%"}, {"measurement": "Degree of Degradation (%)", "setting": "day 161", "value": 66.30, "unit": "%"}, {"measurement": "Degree of Degradation (%)", "setting": "day 165", "value": 66.92, "unit": "%"}, {"measurement": "Degree of Degradation (%)", "setting": "day 168", "value": 65.84, "unit": "%"}, {"measurement": "Degree of Degradation (%)", "setting": "day 172", "value": 67.51, "unit": "%"}, {"measurement": "Degree of Degradation (%)", "setting": "day 175", "value": 69.97, "unit": "%"}, {"measurement": "Degree of Degradation (%)", "setting": "day 179", "value": 71.93, "unit": "%"}]}
